Here are results for ten molecules from US20240116985A1, “STAPLED PEPTIDES AND METHODS THEREOF” (priority 2020, published 2024).

The structures appear in SMILES notation. ≈ marks a conversion by molar mass, not a printed value. Where two headings read alike, the source gives them in different places.

One data set can be described thus: CHI Log D procedure. To be noted: for CHI Log D: pH 7.4; for chromatographic logD: pH 7.4, CHI Log D. The format is physicochemical.
Data set [1] addresses T1, full-length beta-Catenin (Uniprot ID P35222) (Homo sapiens, UniProt P35222).
T1 construct: 10 nM full-length beta-Catenin (Uniprot ID P35222)
T1 sequence (P35222 1-781): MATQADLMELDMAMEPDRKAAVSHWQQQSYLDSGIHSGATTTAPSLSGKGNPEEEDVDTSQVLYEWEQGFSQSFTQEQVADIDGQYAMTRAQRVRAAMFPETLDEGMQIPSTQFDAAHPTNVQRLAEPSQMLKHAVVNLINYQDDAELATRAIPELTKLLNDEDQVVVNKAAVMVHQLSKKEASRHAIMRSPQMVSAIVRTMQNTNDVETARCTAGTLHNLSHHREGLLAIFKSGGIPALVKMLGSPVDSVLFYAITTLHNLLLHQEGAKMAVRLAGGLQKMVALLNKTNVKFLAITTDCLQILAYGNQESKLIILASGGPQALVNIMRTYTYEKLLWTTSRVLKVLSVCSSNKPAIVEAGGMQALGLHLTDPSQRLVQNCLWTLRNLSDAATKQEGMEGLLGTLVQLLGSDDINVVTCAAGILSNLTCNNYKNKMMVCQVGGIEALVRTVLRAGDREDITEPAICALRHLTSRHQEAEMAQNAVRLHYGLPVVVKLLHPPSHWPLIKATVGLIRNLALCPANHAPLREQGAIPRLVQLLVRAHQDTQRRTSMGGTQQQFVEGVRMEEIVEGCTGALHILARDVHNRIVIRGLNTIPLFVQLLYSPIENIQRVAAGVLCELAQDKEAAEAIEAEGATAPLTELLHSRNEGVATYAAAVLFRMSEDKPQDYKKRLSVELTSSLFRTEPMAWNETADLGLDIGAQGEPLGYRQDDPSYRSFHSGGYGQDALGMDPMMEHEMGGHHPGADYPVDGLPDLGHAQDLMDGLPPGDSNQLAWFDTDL
Put plainly: Fluorescence polarization IC50 (beta-catenin / 5FAM-TCF4 10-53 competition). Type of data set: binding.

A short description of a further data set: Solubility in PBS. The format is physicochemical. The essentials:
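Read-out is the HPLC peak area of the supernatant from ultracentrifuged PBS solution, scaled against a 50 μM peptide DMSO injection; value reported as [(PBS area)/(DMSO area)]*50 uM.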

Setting [2] is: fluorescence polarization, read-out: beta-Catenin FP IC50.

`CC(=O)N1CCC[C@]12CC=CCCCC1(CCCC=CCCCCCC[C@@](C)(C(=O)N[C@@H](Cc3ccccc3)C(=O)N[C@@H](Cc3csc4ccccc34)C(=O)N[C@@H](CCO)C(N)=O)NC(=O)[C@H](CCC(N)=O)NC(=O)[C@H](Cc3ccccc3)NC(=O)[C@H](C)NC(=O)[C@H](C)NC(=O)[C@H](CCC(=O)O)NC(=O)[C@H](CC(=O)O)NC1=O)NC(=O)[C@H](C)NC(=O)[C@H](CC(=O)O)NC2=O` (stereo partly drawn) [I-491, Ac-PL3-Asp-Ala-B5-Asp-Glu-Ala-Ala-Phe-Gln-S8-Phe-BztA-Hse-NH2]: in “CHI Log D procedure”, the “CHI Log D” value amounted to 2.023. In addition, the IC50 in data set [1] (setting [2]) and in data set [1] (read-out: FP EC50) was 153 nM throughout. In addition, the “Solubility” value in “Solubility in PBS” was 39 µM (≈ 70.7 µg/mL).

For the molecule `CC(=O)N1CCC[C@]12CC=CCCCC1(CCCC=CCCCCCC[C@@](C)(C(=O)N[C@@H](Cc3ccccc3)C(=O)N[C@@H](Cc3csc4ccccc34)C(=O)N[C@@H](CCO)C(N)=O)NC(=O)[C@H](CCC(N)=O)NC(=O)[C@H](Cc3ccccc3)NC(=O)[C@H](C)NC(=O)[C@H](C)NC(=O)[C@H](CCC(=O)O)NC(=O)[C@H](CC(=O)O)NC1=O)NC(=O)[C@H](C)NC(=O)[C@H](CC(=O)O)NC2=O` (stereo partly drawn) [I-492, Ac-PL3-Asp-Ala-B5-Asp-Glu-Ala-Ala-Phe-Gln-S8-Phe-BztA-Hse-NH2], in the data set “CHI Log D procedure”, the “CHI Log D” value is reported as 2.052. The IC50 in data set [1] (setting [2]) and in data set [1] (read-out: FP EC50) was 53 nM throughout. For the same molecule, the “Solubility” value in “Solubility in PBS” was found to be 49 µM (≈ 88.9 µg/mL).

In turn, `CC(=O)N1CCC[C@]12CC=CCCCC1(CCCC=CCCCCCC[C@@](C)(C(=O)N[C@@H](Cc3ccccc3)C(=O)N[C@@H](Cc3csc4ccccc34)C(=O)N[C@H](CO)C(N)=O)NC(=O)[C@H](CCC(N)=O)NC(=O)[C@H](Cc3ccccc3)NC(=O)[C@H](C)NC(=O)[C@H](C)NC(=O)[C@H](CCC(=O)O)NC(=O)[C@H](CC(=O)O)NC1=O)NC(=O)[C@H](C)NC(=O)[C@H](CC(=O)O)NC2=O` (stereo partly drawn) [I-493, Ac-PL3-Asp-Ala-B5-Asp-Glu-Ala-Ala-Phe-Gln-S8-Phe-BztA-DSer-NH2] registered a chromatographic logD in the data set “CHI Log D procedure” of 2.2. Further, the IC50 in data set [1] (setting [2]) came to 88 nM. The “Solubility” value in the data set “Solubility in PBS” amounted to 50 µM (≈ 90 µg/mL).

Turning to `CC(=O)N1CCC[C@]12CC=CCCCC1(CCCC=CCCCCCC[C@@](C)(C(=O)N[C@@H](Cc3ccccc3)C(=O)N[C@@H](Cc3csc4ccccc34)C(=O)N[C@H](CCC(N)=O)C(N)=O)NC(=O)[C@H](CCC(N)=O)NC(=O)[C@H](Cc3ccccc3)NC(=O)[C@H](C)NC(=O)[C@H](C)NC(=O)[C@H](CCC(=O)O)NC(=O)[C@H](CC(=O)O)NC1=O)NC(=O)[C@H](C)NC(=O)[C@H](CC(=O)O)NC2=O` (stereo partly drawn) [I-494, Ac-PL3-Asp-Ala-B5-Asp-Glu-Ala-Ala-Phe-Gln-S8-Phe-BztA-DGIn-NH2], the chromatographic logD in “CHI Log D procedure” was determined as 2.05. In addition, the IC50 in data set [1] (setting [2]) amounted to 82 nM. Moreover, in “Solubility in PBS” (Solubility (uM)), the Solubility was 44 µM (≈ 81 µg/mL).

For `CC(=O)N1CCC[C@]12CC=CCCCC1(CCCC=CCCCCCC[C@@](C)(C(=O)N[C@@H](Cc3ccccc3)C(=O)N[C@@H](Cc3csc4ccccc34)C(=O)N[C@@H](Cc3c[nH]cn3)C(N)=O)NC(=O)[C@H](CCC(N)=O)NC(=O)[C@H](Cc3ccccc3)NC(=O)[C@H](C)NC(=O)[C@H](C)NC(=O)[C@H](CN(CC(=O)O)CC(F)(F)F)NC(=O)[C@H](CC(=O)O)NC1=O)NC(=O)[C@H](C)NC(=O)[C@H](CC(=O)O)NC2=O` (stereo partly drawn) [I-499, Ac-PL3-Asp-Ala-B5-Asp-TfeGA-Ala-Ala-Phe-Gln-S8-Phe-BztA-His-NH2], the chromatographic logD in the data set “CHI Log D procedure” amounted to 2.17. In data set [1] (setting [2]), the IC50 was determined as 123 nM. In the data set “Solubility in PBS” (Solubility (uM)), this molecule yielded a Solubility of 48 µM (≈ 93.5 µg/mL).

Molecule `CC[C@H](C)[C@@H]1NC(=O)[C@H](CC(=O)O)NC(=O)[C@]2(CC=CCCCC3(CCCC=CCCCCCC[C@@](C)(C(=O)N[C@@H](Cc4ccccc4)C(=O)N[C@@H](Cc4csc5ccccc45)C(=O)N[C@@H](Cc4c[nH]cn4)C(N)=O)NC(=O)[C@H](CCC(N)=O)NC(=O)[C@H](Cc4ccccc4)NC(=O)[C@H](C)NC(=O)[C@H](C)NC(=O)[C@H](CN(CC(=O)O)CC(F)(F)F)NC(=O)[C@H](CC(=O)O)NC3=O)NC1=O)CCCN2C(C)=O` (stereo partly drawn) [I-500, Ac-PL3-Asp-Ile-B5-Asp-TfeGA-Ala-Ala-Phe-Gln-S8-Phe-BztA-His-NH2] had a chromatographic logD in the data set “CHI Log D procedure” of 2.63. In addition, in data set [1] (setting [2]), the IC50 is 176 nM. Further, in “Solubility in PBS” (Solubility (uM)), the Solubility was 28 µM (≈ 55.7 µg/mL).

On to `CC(=O)N1CCC[C@]12CC=CCCCC1(CCCC=CCCCCCC[C@@](C)(C(=O)N[C@@H](Cc3ccccc3)C(=O)N[C@@H](Cc3csc4ccccc34)C(=O)N[C@@H](CCC(N)=O)C(N)=O)NC(=O)[C@H](CCC(N)=O)NC(=O)[C@H](Cc3ccccc3)NC(=O)[C@H](C)NC(=O)[C@H](C)NC(=O)[C@H](CCC(=O)O)NC(=O)[C@H](CC(=O)O)NC1=O)NC(=O)[C@H](CC(F)(F)F)NC(=O)[C@H](CC(=O)O)NC2=O` (stereo partly drawn) [I-501, Ac-PL3-Asp-F3CA-B5-Asp-Glu-Ala-Ala-Phe-Gln-S8-Phe-BztA-Gln-NH2], for which the “CHI Log D” value in the data set “CHI Log D procedure” is 2.138. Also, the IC50 in data set [1] (setting [2]) and in data set [1] (read-out: FP EC50) was 94 nM throughout. For the same molecule, the “Solubility” value in the data set “Solubility in PBS” was found to be 49 µM (≈ 93.5 µg/mL).

As for `CC(=O)N1CCC[C@]12CC=CCCCC1(CCCC=CCCCCCC[C@@](C)(C(=O)N[C@@H](Cc3ccccc3)C(=O)N[C@@H](Cc3csc4ccccc34)C(=O)N[C@@H](CCC(N)=O)C(N)=O)NC(=O)[C@H](CCC(N)=O)NC(=O)[C@H](Cc3ccccc3)NC(=O)[C@H](C)NC(=O)[C@H](C)NC(=O)[C@H](CCC(=O)O)NC(=O)[C@H](CC(=O)O)NC1=O)NC(=O)[C@H](CC(F)(F)F)NC(=O)[C@H](CC(=O)O)NC2=O` (stereo partly drawn) [I-502, Ac-PL3-Asp-F3CA-B5-Asp-Glu-Ala-Ala-Phe-Gln-S8-Phe-BztA-Gln-NH2], the “CHI Log D” value in “CHI Log D procedure” is on record as 2.171. Besides, the IC50 in data set [1] (setting [2]) and in data set [1] (read-out: FP EC50) was 55 nM in each case. Also, the “Solubility” value in “Solubility in PBS” worked out at 50 µM (≈ 95.5 µg/mL).

For `CC(=O)N1CCC[C@]12CC=CCCCC1(CCCC=CCCCCCC[C@@](C)(C(=O)N[C@@H](Cc3ccccc3)C(=O)N[C@@H](Cc3csc4ccccc34)C(=O)N[C@@H](CCC(N)=O)C(N)=O)NC(=O)[C@H](CCC(N)=O)NC(=O)[C@H](Cc3ccccc3)NC(=O)[C@H](C)NC(=O)[C@H](C)NC(=O)[C@H](CCC(=O)O)NC(=O)[C@H](CC(=O)O)NC1=O)NC(=O)[C@H](CC(F)F)NC(=O)[C@H](CC(=O)O)NC2=O` (stereo partly drawn) [I-503, Ac-PL3-Asp-HF2CA-B5-Asp-Glu-Ala-Ala-Phe-Gln-S8-Phe-BztA-Gln-NH2], in the data set “CHI Log D procedure”, the chromatographic logD worked out at 2.09. Moreover, the IC50 in data set [1] (setting [2]) is 84 nM. In the data set “Solubility in PBS” (Solubility (uM)), this molecule displayed a Solubility of 33 µM (≈ 62.4 µg/mL).

On to `CC(=O)N1CCC[C@]12CC=CCCCC1(CCCC=CCCCCCC[C@@](C)(C(=O)N[C@@H](Cc3ccccc3)C(=O)N[C@@H](Cc3csc4ccccc34)C(=O)N[C@@H](Cc3c[nH]cn3)C(N)=O)NC(=O)[C@H](CCC(N)=O)NC(=O)[C@H](Cc3ccccc3)NC(=O)[C@H](C)NC(=O)[C@H](C)NC(=O)[C@H](CCC(=O)O)NC(=O)[C@H](CC(=O)O)NC1=O)NC(=O)[C@H](CC(F)(F)F)NC(=O)[C@H](CC(=O)O)NC2=O` (stereo partly drawn) [I-504, Ac-PL3-Asp-F3CA-B5-Asp-Glu-Ala-Ala-Phe-Gln-S8-Phe-BztA-His-NH2], for which, in “CHI Log D procedure”, the chromatographic logD was found to be 2.22. Moreover, the IC50 in data set [1] (setting [2]) came out at 65 nM. In addition, the Solubility in “Solubility in PBS” (Solubility (uM)) was determined as 18 µM (≈ 34.5 µg/mL).
